In data set [1] the test system is M. phlei, M. smegmatis. As to the kind of experiment: Resazurin-based microdilution growth inhibition assay. The format is cell-based. Particulars: for IC50 / IC90: strain and unit inferred. Here is the method: The antibacterial activity of the microparticles of the invention with rifabutin (and of the nanosystems) was evaluated in the strain that grows rapidly, M. phlei, and in the strain that grows slowly, M. smegmatis, using a resazurin-based microdilution assay according to the EUCAST guidelines and CSLI guidelines with slight modifications. This is a quick and objective method, and the minimum inhibitory concentration (MIC) is easily detectable because resazurin (blue) turns into resorufin (pink fluorescence) in the presence of viable bacteria. The microparticles of the invention with rifabutin were diluted in a cation-adjusted 2X Mueller-Hinton broth (CaMHB) until reaching a final antibiotic concentration of 32 mg/L. Since the range of susceptibility of Mycobacterium species to rifabutin is ≤0.25-16 mg/L, the highest tested antibiotic concentration was 16 mg/L. A bacterial suspension (in CaMHB) was diluted to a final concentration of 5 × 10^5 CFU/mL. For efficacy determination, the following controls were used: (i) growth control (without treatment), (ii) sterility control (CaMHB), (iii) positive control for inhibitory effect (free rifabutin in solution), and as well as (iv) the microparticles of the invention (without rifabutin), so as to take into account the possible effects of the microparticles of the invention on bacterial growth. […] Fluorescence intensity was measured at 560 and 590 nm of excitation and monitored using the FLUOR®star Omega multimode lector (Biotron Healthcare, India) and the MARS data analysis software, after an incubation period of 30 min at 37°C. The lowest concentration at which color change was observed was considered the minimum inhibitory concentration (MIC) value. Furthermore, IC50 was calculated using an online tool: "Quest Graph™ IC50 Calculator". AAT Bioquest, Inc.

Data set [2] deals with Mycobacterium smegmatis. As to the kind of experiment: Biofilm disruption, crystal violet assay. The format is cell-based. Set-up: MIC: unit not given beside the values. As to the method: In these experiments, the antimicrobial potential of the system was evaluated in Mycobacterium smegmatis used as a model of M. tuberculosis as they have homologous genes. The biofilm formation potential of Mycobacterium smegmatis was evaluated by scanning electron microscopy and the formation thereof was quantified with crystal violet, using 96-well plates made of polyvinyl chloride.
A crystal violet-based spectrophotometric study was used. To that end, M. smegmatis was inoculated in liquid culture (5 mL of 7H9 medium supplemented with OACC) and left to grow to exponential phase. The culture was diluted 1:100 and 100 µL were pipetted into each well. The controls were the rifabutin-free formulations and the blank was the bacterial culture-free medium. After incubating for two days at 37°C and once the biofilm was formed, the plates were washed with distilled water to remove planktonic cells and 200 µL of each formulation were added in serial dilutions (in the same manner as above). After 24 h, the plate was washed with water again to remove possible planktonic cells, and the biofilm was stained with 125 µL of 0.1% crystal violet solution and incubated for 10 min at room temperature. It was the washed with water and stirred vigorously. Finally, remaining crystal violet was solubilized by adding 200 µL of 95% ethanol and incubating for 15 min at room temperature. The solution was then transferred to a 96-well, flat-bottom plate, and biofilm formation was measured at 570 nm.

For data set [3] the following is noted: cited from earlier work.
For data set [4], the system named is RAW 264.7 cells. As to the kind of experiment: MTT cytotoxicity assay. Format: cell-based. Particulars: 12.5 µg/mL rifabutin. Here is the method: To ensure that the microparticles of the invention can be safely used for pharmaceutical uses, MTT was used to investigate their cytotoxicity in Raw264.7 cells. In that sense, the in vitro toxicity of the microparticles of the invention, prepared according to Example 4, was evaluated by means of an MTT colorimetric assay, quantifying the water-insoluble formazan in RAW 264.7 cells after 24 hours of incubation of different particle concentrations. Cells were seeded (10,000 cells/well) 24 h before the experiment in a 96-well plate in a DMEM culture medium (10% FBS and 1% penicillin/streptomycin) at […] 37°C and 5% CO2. The medium was then replaced with the formulations and the cells were incubated for 24 hours. Fresh medium was used as negative control and Triton x100 (1% v/v) was used as positive control. After 24 h, 0.5 mg/mL of MTT dissolved in PBS were added, and the cells were incubated for 4 h at 37°C in darkness. Formazan crystals were dissolved by means of adding HCl 0.04 N in isopropanol and absorbance was measured at 570 nm using a microplate reader (Synergy H1 Hybrid Multi-Mode, BioTek, Winooski, VT, USA). Cell viability (%) was calculated following the equation: Cell viability (%) = (Sample absorbance−Negative control absorbance)/(Positive control absorbance−Negative control absorbance) × 100 [formula]
(Formazan colour is commonly taken as a measure of viable cells.)

Data set [5] has as its system Mycobacterium species. The settings on record: cited from earlier work.
[6] abbreviates: Mycolicibacterium smegmatis, Biofilm culture, unit inferred.

≈ marks a conversion by molar mass, not a printed value. Where only a bound is given, the exact number is not on record here.

For `CO[C@H]1/C=C/O[C@@]2(C)Oc3c(C)c(O)c4c(c3C2=O)C2=NC3(CCN(CC(C)C)CC3)NC2=C(NC(=O)/C(C)=C\C=C\[C@H](C)[C@H](O)[C@@H](C)[C@@H](O)[C@@H](C)[C@H](OC(C)=O)[C@@H]1C)C4=O` [Rifabutin], the MIC in data set [1] (2-day preinoculum, strain and unit not given) was 4; in data set [1] (4-day preinoculum, strain and unit not given), 4; in data set [1] (Preinoculum culture t=0, strain and unit not printed in table (method: mg/L)), 1; in data set [2] (Biofilm culture, unit not given) it was 4. In addition, the concentration for half-maximal inhibition (IC50) in data set [1] (48 h, 2-day preinoculum) came out at 2.24 µg/mL (≈ 2.64 µM); in data set [1] (96 h, 4-day preinoculum), 2.04 µg/mL (≈ 2.41 µM); in data set [1] (Preinoculum culture t=0), 0.34 µg/mL (≈ 0.401 µM); in data set [2] (setting [6]), 4.67 µg/mL (≈ 5.51 µM). For the same compound, the IC90 in data set [1] (48 h, 2-day preinoculum) was 20.2 µg/mL (≈ 23.8 µM); in data set [1] (96 h, 4-day preinoculum), 18.4 µg/mL (≈ 21.7 µM); in data set [1] (Preinoculum culture t=0) it was 3.06 µg/mL (≈ 3.61 µM); in data set [2] (setting [6]), 42 µg/mL (≈ 49.6 µM). For the same compound, the “difference between culture with rifabutin in suspension and without treatment” value in data set [2] (2 mg/mL) is given as “hardly any differences”. Besides, in data set [3], the “oral bioavailability (reaches systemic circulation)” value is on record as “less than 20%”. Further, the viability in data set [4] is on record as above 50%. For the same compound, in data set [5], the “range of susceptibility of Mycobacterium species to rifabutin” value was 0.25 to 16 mg/L.

One may read the IC50 as the concentration at which inhibition is half-maximal. As usually defined, the IC90 is the point of the concentration-response curve where the effect stands at 90%. For orientation: viability means a read-out of living cells in per cent, often relative to untreated cells.

The record behind these values is patent EP4740940A1, “POLLEN PARTICLES AS CARRIERS FOR PULMONARY DELIVERY” (Universidade de Santiago de Compostela, priority 2023, dated 2025).
